Assay results reported in patent publication US12396977B2, “Composition for treating degenerative brain diseases, containing 2-pentylfuran as active ingredient” (DAEGU GYEONGBUK INSTITUTE OF SCIENCE AND TECHNOLOGY, priority 2019, dated 2025).
Residue numbers refer to the chain shown, from its start. “Also recorded” adds a separate entry of the source.

What was measured:
microglia = assay: GFP intensity / morphology of microglia in CX3CR1 GFP mice; assay type: in vivo, mouse; settings: cerebral cortex of CX3CR1 GFP mice after injection, vs control
Procedure: In order to analyze morphological changes in microglia activation, 9-week-old CX3CR1^GFP/− mice were used. Two hours after an IP containing or not containing 2-PF was injected into two mice, brain sections were collected by cryosection. After a 40 μm-thick brain tissue fragment was prepared to be smaller than 1 μm, a GFP signal of microglia was measured using a 40-fold magnification confocal microscope. A GFP-pixel signal of microglia was analyzed using Zeiss ZEN Software (Zeiss).

Olfr110 = biological target: T1, Olfr110 (Mus musculus, UniProt A2RT31); assay: Luciferase assay in Hana3A cells, Olfr110; assay type: cell-based
T1 construct: Full-length odorant receptor genes from mouse and human genomic DNA were amplified using appropriate primers; Lucy (N); Flag (N); Rho (N); expressed in transfected cells; host or cells: Hana3A cells, co-transfected with RTP1S, pCRELuc and pRL-SV40
T1 sequence (A2RT31 1-317): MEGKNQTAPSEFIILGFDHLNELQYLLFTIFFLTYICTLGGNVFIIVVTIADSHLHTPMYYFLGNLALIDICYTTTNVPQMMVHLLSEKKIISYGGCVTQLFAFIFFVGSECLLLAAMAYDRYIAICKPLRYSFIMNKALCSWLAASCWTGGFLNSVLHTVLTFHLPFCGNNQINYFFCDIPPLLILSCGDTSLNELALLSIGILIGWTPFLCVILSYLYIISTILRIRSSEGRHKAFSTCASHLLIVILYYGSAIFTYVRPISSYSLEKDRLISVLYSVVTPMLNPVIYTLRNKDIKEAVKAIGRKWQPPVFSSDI
Procedure: (§1) Next, Hana3A cells were transfected with RTP1S, and their location and presence on the cell membrane were confirmed as previously described (Behrens et al., 2009; Zhuang and Matsunami, 2008). Such transfection was performed using Lipofectamine 2000 (#11668-019; Thermo Fisher Scientific) according to the manufacturer's instructions. More specifically, the transfected cells were grown on a coverslip (#0101050; Marienfeld) coated with poly D lysine (10 μg/ml; #P7280; Sigma Aldrich). Next, the cells were washed with a warm PBS solution and cooled with ice for 30 minutes to block endocytosis. […] The cells were then incubated with normal horse serum (#008-000-121; Jackson ImmunoResearch) at room temperature for 1 hour. […] After being washed with PBS, the cells were treated with a Cy3-conjugated donkey anti-mouse antibody (1:1,000; #715-165-150; Jackson ImmunoResearch), an Alexa488-conjugated donkey anti-mouse antibody (1:1,000; #715-545-150; Jackson ImmunoResearch), or a Cy3-conjugated donkey anti-rabbit antibody (1:1,000; #711-165-152; Jackson ImmunoResearch) at room temperature for 1 hour. The cells were mounted with a Vectashield fluorescent mounting medium containing DAPI (#H-1200; Vector Laboratories). The expression of heterologous odorant receptors was analyzed with a confocal laser scanning microscope LSM700 and ZEN software (Zeiss).
(§2) The Dual-Glo luciferase assay system (#E2940; Promega) was used for odorant receptor ligand screening. More specifically, Hana3A cells were streaked and spread on a white polystyrene 96-well plate (#353296; BD Biosciences) one day before transfection. pCRELuc (1 μg; #219076; Agilent Technologies), pRL-SV40 (1 μg; #E2231; Promega), RTP1S (1 μg), and OR (6 μg; or Mock) vectors were transfected for 24 hours in each plate. Each plate was analyzed using Lipofectamine 2000 (#11668-019; Thermo Fisher Scientific) according to the manufacturer's protocol. Transfected cells were stimulated in CD293 medium (#11913-019; Thermo Fisher Scientific) at 37° C. for 4 hours using diluted odorants at various concentrations. The activity of luciferase was normalized by the activity of Renilla luciferase. The amount of light emitted was measured using a SpectraMax L microplate reader (Molecular Devices).

Olfr111 = assay: Luciferase assay in Hana3A cells, Olfr111; assay type: cell-based, mouse; settings: Hana3A cells
Procedure: as §1, §2

Olfr110 F104W mutation = biological target: T2, Olfr110 F104W mutation (Mus musculus, UniProt A2RT31, F104W); assay: Luciferase assay, Olfr110 F104W mutant; assay type: cell-based; settings: increasing concentration of 2-PF
T2 construct: Full-length odorant receptor genes from mouse and human genomic DNA were amplified using appropriate primers; Lucy (N); Flag (N); Rho (N); expressed in transfected cells; host or cells: Hana3A cells
T2 sequence (A2RT31 1-317 F104W): T1 sequence (A2RT31 1-317) with F104W
Text: Specific mutant vectors of the Olfr110 structure were generated using PfuUltra High-Fidelity DNA polymerase (#600380; Agilent Technologies). All mutant vectors (F102W; F104W; Y252F; Y259F; F102W/F104W; Y252F/Y259F; F102W/Y252F/Y259F; F104W/Y252F/Y259F; F102W/F104W/Y252F/Y259F) were sequenced in forward and reverse directions (Macrogen).

primary microglia [1] = assay: Boyden chamber chemotaxis of primary microglia; assay type: cell-based, mouse; settings: 100, 300, and 500 μM
Procedure: Cell chemotaxis was measured using a multiwell Boyden chamber. More specifically, a polycarbonate filter (8 μm pore; #101-8; Neuroprobe) was coated with […] fibronectin in PBS (Sigma-Aldrich) for 2 hours, and the coated filter was placed in a Boyden chamber. In addition, the bottom side of the plate was filled with serum-free DMEM containing 2-pentylfuran or a culture supernatant. Next, microglia or Hana3A cells were transfected with an odorant receptor structure and then suspended in serum-free DMEM. Subsequently, microglia and Hana3A cells were allowed to stand at 37° C. for 4 hours and 8 hours, respectively. Cells sinking to the bottom were fixed with 4% PFA, and stained with hematoxylin for 10 minutes. Fixed cells were counted under an optical microscope in 5 randomly selected fixed […] fields (200×) using a scored eyepiece. The chemical chemotaxis index was defined as the number of migrating cells using an untreated group as a standard.

primary microglia [2] = assay: Phagocytosis of FITC-dextran by primary microglia (FACS); assay type: cell-based, mouse; settings: 100, 300, and 500 μM
Procedure: Primary microglia were cultured for 24 hours after being seeded in a 24-well plate (5×10^5 cells/well). Cells were pre-cultured with 2-PF or Sup for 30 minutes, transferred to FITC-dextran (1 mg/ml, 20 mg/ml in PBS; #FD70S; Sigma Aldrich) in serum-free DMEM at 37° C. for […], and washed with PBS at 4° C. Cells were detached by 0.25% trypsin in PBS (#15090-046; Thermo Fisher Scientific) and the detached cells were analyzed by FACS Accuri™ C6 (BD Biosciences). Mean fluorescence intensity (MFI) was calculated by integrating fluorescence histograms under each condition using the aforementioned software. The phagocytosis index was defined as MFI using an untreated group as a standard.

primary microglia [3] = assay: Fura-2/AM calcium imaging of microglia; assay type: cell-based, mouse; settings: 2-PF 100, 300, 1000 μM
Procedure: The newly isolated microglia were placed on poly-D-lysine-coated 18-mm aperture microscope cover glasses (#0111580; Marienfeld), and after 24 hours, the microglia were cultured in a superfusion chamber for 30 minutes. The chamber contained 4 μM of Fura-2/AM (Ca^2+-sensitive fluorescent dye; #F1221; Thermo Fisher Scientific) in a 0.22 μm-filtered Ringer's solution (115 mM NaCl, 2.5 mM KCl, 1 mM CaCl2, 1.5 mM MgCl2, 4.5 mM HEPES, pH 7.4). After calcium staining culture, the chamber was placed under an inverted microscope and rinsed with Ringer's solution for 20 minutes before treatment with […]. In this case, the flow rate of the solution is 12 ml/min. Next, the primary microglia were treated with 300 μM ATP (#A2383; Sigma Aldrich) for 5 seconds. After being washed for 5 minutes, the primary microglia were treated with a 2-pentylfuran solution at a concentration of 100 μM for 5 seconds. This step was performed with a 2-pentylfuran solution at two concentrations (300 and 1000 μM). Finally, the primary microglia were treated with a 300 μM ATP solution for 5 seconds. The emitted fluorescent material was photographed using a CCD camera every 2 seconds. Pseudo-color images were converted using fractional fluorescence changes (ΔF/F, Δ[Ca^2+]i). Furthermore, these images show changes in intracellular calcium ions. […]

mode of action at Olfr110 (Olfr110): agonist
luciferase activity of Olfr110 F104W mutant (Olfr110 F104W mutation): completely lost
Compound: CCCCCc1ccco1 [2-PF, 2-pentylfuran]
GFP intensity of microglia (morphological change, activation) (microglia): highly increased
reactivity of Olfr110 (relative luciferase activity) (Olfr110; Hana3A cells): particularly strong reactivity; also recorded: strongest reactivity
reactivity of Olfr111 (relative luciferase activity) (Olfr111): particularly strong reactivity; also recorded: highest reactivity
chemotaxis of microglia (primary microglia [1]): significantly increased in a concentration-dependent manner
phagocytosis of microglia (primary microglia [2]): significantly increased in a concentration-dependent manner
intracellular calcium ion levels (primary microglia [3]): increased according to an injection amount
